Measured values published in patent publication US20020010333A1, “Use of xanthine derivatives for reducing the pathological hyperreactivity of eosinophilic granulocytes, novel xanthine compounds and process for their preparation” (Hoechst Aktiengesellschaft, priority 1994, published 2002).
In brackets after ≈: the same amount, converted by molar mass. Read-outs that look alike come from different tables or passages of the source.

Experiments:
[1] = test system: ovalbumin-induced asthma attack; assay: Inhibition of the antigen-induced early-phase reaction (ovalbumin-induced bronchospasm, Konzett-Rössler) in the presensitized guinea pig; assay type: in vivo, albino guinea pigs; conditions: Cavia porcellus, iv, protected = asthma reaction reduced by at least 40% relative to control; for responders at 10 mg/kg: 10 mg/kg i.v. 15 minutes before antigen; for responders at 25 mg/kg: 25 mg/kg i.v. 15 minutes before antigen
Protocol: Albino guinea pigs of both sexes having a body weight of 180 to 220 g were sensitized on two successive days by subcutaneous administration of 1 mg of ovalbumin (0.1% strength dissolved in physiological saline solution) in each case. 20 days later, the experiment was carried out according to the method of Konzett and […] (Arch. exp. Path. und Pharmak. (1940) 195: 75). For this purpose, the animals were anesthetized with pentobarbital, artificially ventilated, treated with alcuronium chloride to exclude spontaneous respiration and divided into groups of 6 animals in each case. By means of intravenous administration of ovalbumin as an antigen in a dose of 1 mg/kg, a long-lasting asthma attack was induced as a result of an acute bronchospasm induced by mediators in the course of the asthmatic early reaction, the intensity of which was quantified by means of the contraction height in the thoracogram. The test preparations were likewise administered intravenously 15 minutes before antigen provocation. Instead of this, the animals of the control group received pure 0.9% strength saline solution. To assess the action of the preparation, the number of animals of the respective collective in which the asthma reaction was reduced by at least 40% relative to the control animals was determined.

[2] = test system: histamine-induced contraction of isolated trachea; assay: Anticonstrictive action against histamine-induced contraction of isolated tracheal ring chains; set-up: species or system albino guinea pigs; conditions: Cavia porcellus; guinea pig tracheal chain, histamine dihydrochloride 3×10^−7 g/ml, n=6
Excerpt: (§1) The inhibitory action of the compounds of formula I on the proinflammatory early-phase mediators histamine, PAF and leukotriene D4 (LTD4) was investigated on isolated segments of the respiratory tract organs of albino guinea pigs, the inhibition of the contractions which can be caused by these mediators being used as measurement parameters.
(§2) To carry out the experiment, freshly prepared organs of male animals were used in each case. The trachea was divided into its rings, of which 5 tracheal rings in each case were linked with silk thread to give a chain, suspended under a tension of 0.5 g in an organ bath containing Tyrode solution at 37° C. through which was bubbled 95% O2/5% CO2, and contracted by addition of histamine dihydrochloride (bath concentration: 3×10^−7 g/ml) in the absence (control experiment) or in the presence of the test substances.
(§3) Each experiment comprised the parallel investigation of 6 organ preparations (n=6).
(§4) The assessment of the action of the preparation was carried out with the aid of the IC50 values, which represent that concentration in μg/ml at which the organ contraction produced in the control experiment was reduced by half.

[3] = test system: PAF-induced contraction of isolated lung strips; assay: Anticonstrictive action against PAF-induced contraction of isolated lung strips; set-up: species or system albino guinea pigs; conditions: Cavia porcellus; guinea pig lung strips, PAF 10^−9 g/ml, n=6; read-out: Anticonstrictive action (IC50) PAT lung
Excerpt: as §1, §2
(§5) The lungs were cut longitudinally into 2 to 3 strips, using which the process as described above was carried out. The tension, however, was 1 g and the contraction was induced by PAF or LTD4 at a bath concentration of 10^−9 or 10^−8 g/mi.
as §3, §4

[4] = test system: LTD4-induced contraction of isolated lung strips; assay: Anticonstrictive action against LTD4-induced contraction of isolated lung strips; set-up: species or system albino guinea pigs; conditions: Cavia porcellus; guinea pig lung strips, LTD4 10^−8 g/ml, n=6
Excerpt: as §1, §2, §5, §3, §4

[5] = test system: eosinophilic granulocytes; assay: Antigen-induced late-phase reaction: ex vivo actin polymerization of eosinophils (flow cytometry); assay type: in vivo, guinea pigs; conditions: PAF 10 nM, eosinophils of animals treated with 80 mg/kg daily oral
Protocol: (§6) In a chronic long-term experiment on guinea pigs provoked with human serum antigen, the inhibitory action of the compounds of the formula I on the pathologically raised chemotactic infiltration of eosinophilic granulocytes into the peritoneal space (in vivo) and their functional state (ex vivo) was investigated. The animals of the preparation group (n=6) were treated with the test substance at a daily oral dose of 80 mg/kg for 15 weeks, while the animals of the control group (n=6) received the vehicle (carboxymethylcellulose). After the third week of treatment, all 12 animals were provoked by weekly intraperitoneal administration of 1 ml of human serum antigen and 48 hours later in each case subjected to a peritoneal lavage with 50 ml of 5% strength glucose solution in which the number of infiltrated eosinophils and, after their isolation on discontinuous Percoll density gradients (purity >95%; V ability >98%), the reactivity to PAF and C5a were determined in a comparison between the two animal collectives by flow cytometry with the aid of actin polymerization and by means of the Boyden chamber technique.

[6] = test system: human eosinophilic granulocytes; assay: Inhibition of eosinophil activation by late-phase mediators, lucigenin-dependent chemiluminescence; assay type: cell-based; conditions: 0.5 h, test substance 100 μM, human eosinophils, CL over 30 minutes
Excerpt: The inhibitory action of the xanthines of formula I on the activation ability of human eosinophilic granulocytes by means of the late-phase mediators IL-5, GM-CSF, C5a and PAF was investigated with the aid of the lucigenin-dependent chemiluminescence (CL) reaction.
For this purpose, purified eosinophils were obtained from venous human blood according to known processes (Arch. Dermatol. Res. (1987) 279: 470-477 and J. Invest. Dermatol. (1986) 86: 523-528), pretreated with the test substances at the concentration 100 μM or with pure water (positive control (A)) at 37° C. for 10 minutes and then activated with IL-5 (10^2 U/ml), GM-CSF (10^3 U/ml), C5a (10^−7 M) or PAF (10^−6 M) or treated with water for the determination of the basal activity (B). The CL reaction was monitored over the course of 30 minutes measuring at 37° C. The residual activity of the cells pretreated with the test substances was calculated according to the following formula in percent of that of the positive control: [formula]
CLX describes the activity after stimulation of the cells pretreated with the xanthines,
CLA describes the activity after stimulation of the cells pretreated with water and
CLB describes the basal activity of unstimulated cells pretreated with water.

[7] = test system: eosinophilic granulocytes infiltrating the peritoneal space; assay: Antigen-induced late-phase reaction: infiltration of eosinophilic granulocytes into the peritoneal space (in vivo); set-up: species or system guinea pigs; conditions: 80 mg/kg daily oral for 15 weeks, human serum antigen i.p. weekly, peritoneal lavage 48 hours later; control animals 42.2 5.8%; p<0.01
Protocol: as §6

[8] = test system: eosinophilic granulocytes; assay: Antigen-induced late-phase reaction: ex vivo chemotactic migration of eosinophils (Boyden chamber technique); assay type: in vivo, guinea pigs; conditions: eosinophils of animals treated with 80 mg/kg daily oral, compared with control animals, p<0.05
Protocol: as §6

[9] = read-out: Protected animals after i.v. administration, % proportion
[10] = read-out: Protected animals after i.v. administration, number (converted)
[11] = C5a 10^−7 M, read-out: Residual activity in % of the positive control A after stimulation with C5a
[12] = GM-CSF 10^3 U/ml, read-out: Residual activity in % of the positive control A after stimulation with GM-CSF
[13] = IL-5 10^2 U/ml, read-out: Residual activity in % of the positive control A after stimulation with IL-5
[14] = PAF 10^−6 M, read-out: Residual activity in % of the positive control A after stimulation with PAF

Cn1c(=O)n(CC(C)(C)O)c(=O)c2[nH]cnc21 [Example 1, 1-(2-Hydroxy-2-methylpropyl)-3-methylxanthine]
melting point: 215 to 217 °C

CCn1c(=O)n(CC(C)(C)O)c(=O)c2[nH]cnc21 [Example 2, 3-Ethyl-1-(2-hydroxy-2-methylpropyl)xanthine]
responders at 10 mg/kg [1, 9]: 33%
responders at 10 mg/kg [1, 10]: 33.3%
responders at 25 mg/kg [1, 9]: 67%
responders at 25 mg/kg [1, 10]: 66.7%

Cn1c(=O)n(CCC(C)(C)O)c(=O)c2[nH]cnc21 [Example 3, 1-(3-Hydroxy-3-methylbutyl)-3-methylxanthine]
melting point: 203 to 205 °C

CCn1c(=O)n(CCC(C)(C)O)c(=O)c2[nH]cnc21 [Example 4, 3-Ethyl-1-(3-hydroxy-3-methylbutyl)xanthine]
responders at 10 mg/kg [1, 9]: 17%
responders at 10 mg/kg [1, 10]: 16.7%
responders at 25 mg/kg [1, 9]: 50%
responders at 25 mg/kg [1, 10]: 50%
IC50 [2]: 10 µg/mL (≈ 37.6 µM)
IC50 [3]: 1 to 3 µg/mL (≈ 3.76 to 11.3 µM)
melting point: 241 to 243 °C

Cn1c(=O)n(CCCC(C)(C)O)c(=O)c2[nH]cnc21 [Example 5, 1-(4-hydroxy-4-methylpentyl)-3-methylxanthine]
IC50 [4]: 10 µg/mL (≈ 37.6 µM)
IC50 [2]: 30 µg/mL (≈ 113 µM)
IC50 [3]: 3 µg/mL (≈ 11.3 µM)
melting point: 188 to 189 °C

CCn1c(=O)n(CCCC(C)(C)O)c(=O)c2[nH]cnc21 [Example 6, 3-Ethyl-1-(4-hydroxy-4-methylpentyl)xanthine]
IC50 [4]: 1 to 3 µg/mL (≈ 3.57 to 10.7 µM)
IC50 [2]: 30 µg/mL (≈ 107 µM)
IC50 [3]: 3 µg/mL (≈ 10.7 µM)
melting point: 214 to 216 °C

Cn1c(=O)n(CCCCC(C)(C)O)c(=O)c2[nH]cnc21 [Example 7, 1-(5-Hydroxy-5-methylhexyl)-3-methylxanthine]
IC50 [4]: 10 to 30 µg/mL (≈ 35.7 to 107 µM)
responders at 10 mg/kg [1, 9]: 33%
responders at 10 mg/kg [1, 10]: 33.3%
responders at 25 mg/kg [1, 9]: 80%
responders at 25 mg/kg [1, 10]: 80%
IC50 [2]: 10 to 30 µg/mL (≈ 35.7 to 107 µM)
Initial phase (<10s) of actin polymerization induced by PAF [5]: significantly decreased
IC50 [3]: 10 to 30 µg/mL (≈ 35.7 to 107 µM)
activity at 100 µM [6, 11]: 19%
activity at 100 µM [6, 12]: 63%
activity at 100 µM [6, 13]: 42%
activity at 100 µM [6, 14]: 17%
Number of eosinophils which migrated into the peritoneal space [7]: 34.9%
melting point: 192 to 193 °C
Chemotactic migration of eosinophils induced by C5a [8]: significant reduction
Chemotactic migration of eosinophils induced by PAF [8]: significant reduction

Cn1c(=O)n(CCCCC(C)(O)CO)c(=O)c2[nH]cnc21 (stereo not shown) [Example 8, 1-(5,6-Dihydroxy-5-methylhexyl)-3-methylxanthine]
IC50 [4]: 10 µg/mL (≈ 33.7 µM)
responders at 10 mg/kg [1, 9]: 50%
responders at 10 mg/kg [1, 10]: 50%
responders at 25 mg/kg [1, 9]: 50%
responders at 25 mg/kg [1, 10]: 50%
IC50 [2]: 10 to 30 µg/mL (≈ 33.7 to 101 µM)
IC50 [3]: 6 µg/mL (≈ 20.2 µM)
melting point: 181 to 182 °C

CCC(C)(O)CCCCn1c(=O)c2[nH]cnc2n(C)c1=O (stereo not shown) [Example 9, 1-(5-Hydroxy-5-methylheptyl)-3-methylxanthine]
IC50 [4]: 10 to 30 µg/mL (≈ 34 to 102 µM)
responders at 10 mg/kg [1, 9]: 67%
responders at 10 mg/kg [1, 10]: 66.7%
responders at 25 mg/kg [1, 9]: 83%
responders at 25 mg/kg [1, 10]: 83.3%
IC50 [2]: 10 to 30 µg/mL (≈ 34 to 102 µM)
IC50 [3]: 10 µg/mL (≈ 34 µM)
melting point: 169 to 170 °C

CCn1c(=O)n(CCCCC(C)(C)O)c(=O)c2[nH]cnc21 [Example 10, 3-Ethyl-1-(5-hydroxy-5-methylhexyl)xanthine]
melting point: 180 to 182 °C

CCn1c(=O)n(CCCCC(C)(O)CC)c(=O)c2[nH]cnc21 (stereo not shown) [Example 11, 3-Ethyl-1-(5-hydroxy-5-methylheptyl)xanthine]
melting point: 165 to 166 °C

Cn1c(=O)n(CCCCCC(C)(C)O)c(=O)c2[nH]cnc21 [Example 12, 1-(6-Hydroxy-6-methylheptyl)-3-methylxanthine]
IC50 [4]: 6 to 10 µg/mL (≈ 20.4 to 34 µM)
responders at 10 mg/kg [1, 9]: 50%
responders at 10 mg/kg [1, 10]: 50%
responders at 25 mg/kg [1, 9]: 67%
responders at 25 mg/kg [1, 10]: 66.7%
IC50 [2]: 3 to 10 µg/mL (≈ 10.2 to 34 µM)
IC50 [3]: 3 to 6 µg/mL (≈ 10.2 to 20.4 µM)
melting point: 166 to 167 °C

CCn1c(=O)n(CCCCCC(C)(C)O)c(=O)c2[nH]cnc21 [Example 13, 3-Ethyl-1-(6-hydroxy-6-methylheptyl)xanthine]
IC50 [2]: 10 to 30 µg/mL (≈ 32.4 to 97.3 µM)
IC50 [3]: 1 µg/mL (≈ 3.24 µM)
melting point: 163 to 165 °C

CC(=O)CCCCn1c(=O)c2c(ncn2C)n(C)c1=O [Pentoxifylline, 3,7-dimethyl-1-(5-oxohexyl)xanthine, reference compound]
IC50 [4]: 30 to 60 µg/mL (≈ 108 to 216 µM)
responders at 10 mg/kg [1, 9]: 17%
responders at 10 mg/kg [1, 10]: 16.7%
responders at 25 mg/kg [1, 9]: 33%
responders at 25 mg/kg [1, 10]: 33.3%
IC50 [2]: 30 to 60 µg/mL (≈ 108 to 216 µM)
IC50 [3]: 3 µg/mL (≈ 10.8 µM)
activity at 100 µM [6, 11]: 56%
activity at 100 µM [6, 12]: 70%
activity at 100 µM [6, 13]: 57%
activity at 100 µM [6, 14]: 45%

CCOCn1cnc2c1c(=O)n(CCCCC(C)(C)O)c(=O)n2C [Torbafylline, 7-ethoxymethyl-1-(5-hydroxy-5-methylhexyl)-3-methylxanthine, reference compound]
IC50 [4]: 10 to 30 µg/mL (≈ 29.6 to 88.7 µM)
responders at 10 mg/kg [1, 9]: 0%
responders at 10 mg/kg [1, 10]: 0%
responders at 25 mg/kg [1, 9]: 0%
responders at 25 mg/kg [1, 10]: 0%
IC50 [2]: 60 µg/mL (≈ 177 µM)
IC50 [3]: 3 to 6 µg/mL (≈ 8.87 to 17.7 µM)
activity at 100 µM [6, 11]: 51%
activity at 100 µM [6, 12]: 125%
activity at 100 µM [6, 13]: 58%
activity at 100 µM [6, 14]: 58%
